According to patent US20220323406A1, “METHODS AND COMPOSITIONS FOR DIFFERENTIATING STEM CELLS” (Massachusetts Institute of Technology, priority 2019, published 2022):
Structures can show the parent of a compound that is named as a salt.

Legend:
[1] = system: ENR+CD organoids (ISC to Paneth cell differentiation); assay: Primary screen: basal (non-stimulated) lysozyme secretion LYZ.NS, 2.5-D 384-well ENR+CD organoid differentiation; format: cell-based, mouse; conditions: primary screen; for Z.LYZ.NS: standard z score
Excerpt: (§1) High-throughput screening.

[2] = system: ENR+CD organoids (ISC to Paneth cell differentiation); assay: Primary screen: CCh-stimulated lysozyme secretion LYZ.S, 2.5-D 384-well ENR+CD organoid differentiation; format: cell-based, mouse; conditions: primary screen
Excerpt: as §1

[3] = system: ENR+CD organoids; assay: Primary screen: ATP (CellTiter-Glo 3D, CTG) cell number/viability, 2.5-D 384-well ENR+CD organoids; conditions: primary screen; for Z.CTG: standard z score;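 on all read-outs here: compounds given at plating and again on day 3 over a 6-day differentiation from ENR+CV stem-cell-enriched precursors, ATP measured on day 6, plate median as control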
[4] = dose 0.08 uM, FC relative to plate median
[5] = dose 0.40 uM, FC relative to plate median
[6] = dose 2.00 uM, FC relative to plate median
[7] = dose 10.00 uM, FC relative to plate median

Compound | Dose.FC.LYZ.NS [1, 4] [log2 fold change] | Z.LYZ.NS ([1]; dose 0.08 uM) | Dose.FC.LYZ.NS [1, 5] [log2 fold change] | Z.LYZ.NS ([1]; dose 0.40 uM) | Dose.FC.LYZ.NS [1, 6] [log2 fold change] | Z.LYZ.NS ([1]; dose 2.00 uM) | Dose.FC.LYZ.NS [1, 7] [log2 fold change] | Z.LYZ.NS ([1]; dose 10.00 uM) | Dose.FC.LYZ.S [2, 4] [log2 fold change] | Dose.FC.LYZ.S [2, 5] [log2 fold change] | Dose.FC.LYZ.S [2, 6] [log2 fold change] | Dose.FC.LYZ.S [2, 7] [log2 fold change] | Dose.FC.CTG [3, 4] [log2 fold change] | Dose.FC.CTG [3, 5] [log2 fold change] | Dose.FC.CTG [3, 6] [log2 fold change] | Dose.FC.CTG [3, 7] [log2 fold change] | Dose.FC.LYZ.NS ([1]; dose 0.40 uM) [log2 fold change] | Z.LYZ.NS (standard z score) ([1]; dose 0.40 uM) | Dose.FC.LYZ.NS ([1]; dose 2.00 uM) [log2 fold change] | Z.LYZ.NS (standard z score) ([1]; dose 2.00 uM) | further results
CN1CC(=O)N2[C@H](c3ccc4c(c3)OCO4)c3[nH]c4ccccc4c3C[C@@H]2C1=O [Tadalafil] | 0.102 | 0.887 | 0.027 | 0.233 | 0.130 | 1.128 | 0.061 | 0.534 | 0.091 | 0.095 | 0.223 | 0.148 | −0.019 | 0.361 | 0.436 | 0.270 |  |  |  |  | 
COc1cc2c(N3CCN(C(=O)Nc4ccc(OC(C)C)cc4)CC3)ncnc2cc1OCCCN1CCCCC1 [Tandutinib (MLN518)] | 0.095 | 0.828 | 0.122 | 1.066 | 0.116 | 1.012 | 0.047 | 0.407 | 0.145 | 0.178 | 0.093 | 0.100 | 0.585 | 0.354 | 0.358 | 0.586 |  |  |  |  | Z.CTG ([3]; dose 0.08 uM): 1.397; Z.CTG ([3]; dose 0.40 uM): 0.845; Z.CTG ([3]; dose 2.00 uM): 0.856; Z.CTG ([3]; dose 10.00 uM): 1.401
COc1cc2c(cc1OC)CN(CCc1ccc(NC(=O)c3cc(OC)c(OC)cc3NC(=O)c3cnc4ccccc4c3)cc1)CC2 [Tariquidar] | 0.053 | 0.465 | 0.037 | 0.326 | 0.031 | 0.270 | 0.034 | 0.292 | 0.040 | 0.073 | 0.059 | 0.019 | −0.117 | 0.054 | 0.376 | 0.227 |  |  |  |  | 
CCCc1nc2c(C)cc(-c3nc4ccccc4n3C)cc2n1Cc1ccc(-c2ccccc2C(=O)O)cc1 [Telmisartan] | 0.139 | 1.213 | 0.129 | 1.124 | 0.057 | 0.499 | −0.007 | −0.060 | 0.140 | 0.106 | 0.063 | −0.003 | 0.134 | 0.244 | 0.064 | 0.230 |  |  |  |  | 
CO[C@H]1C[C@@H]2CC[C@@H](C)[C@@](O)(O2)C(=O)C(=O)N2CCCC[C@H]2C(=O)O[C@H]([C@H](C)C[C@@H]2CC[C@@H](OC(=O)C(C)(CO)CO)[C@H](OC)C2)CC(=O)[C@H](C)/C=C(\C)[C@@H](O)[C@@H](OC)C(=O)[C@H](C)C[C@H](C)/C=C/C=C/C=C/1C [Temsirolimus (CCI-779, NSC 683864)] | 0.091 | 0.790 |  |  |  |  |  |  | 0.082 |  |  |  | 0.514 |  |  |  | 0.088 | 0.763 | 0.172 | 1.494 | Dose.FC.LYZ.NS ([1]; dose 10.00 uM): 0.119 log2 fold change; Z.LYZ.NS (standard z score) ([1]; dose 10.00 uM): 1.035; Dose.FC.LYZ.S ([2]; dose 0.40 uM): 0.152 log2 fold change; Dose.FC.LYZ.S ([2]; dose 2.00 uM): 0.132 log2 fold change; Dose.FC.LYZ.S ([2]; dose 10.00 uM): 0.153 log2 fold change; Z.CTG ([3]; dose 0.08 uM): 1.228; Dose.FC.CTG ([3]; dose 0.40 uM): 0.583 log2 fold change; Z.CTG (standard z score) ([3]; dose 0.40 uM): 1.393; Dose.FC.CTG ([3]; dose 2.00 uM): 0.578 log2 fold change; Z.CTG (standard z score) ([3]; dose 2.00 uM): 1.382; Dose.FC.CTG ([3]; dose 10.00 uM): 0.200 log2 fold change; Z.CTG (standard z score) ([3]; dose 10.00 uM): 0.478
CC(C)OC(=O)OCOP(=O)(CO[C@H](C)Cn1cnc2c(N)ncnc21)OCOC(=O)OC(C)C [Tenofovir Disoproxil Fumarate] |  |  |  |  |  |  |  |  |  |  |  |  |  |  |  |  | −0.051 | −0.442 | −0.079 | −0.689 | Dose.FC.LYZ.NS ([1]; dose 0.08 uM): 0.055 log2 fold change; Z.LYZ.NS (standard z score) ([1]; dose 0.08 uM): 0.475; Dose.FC.LYZ.NS ([1]; dose 10.00 uM): −0.185 log2 fold change; Z.LYZ.NS (standard z score) ([1]; dose 10.00 uM): −1.614; Dose.FC.LYZ.S ([2]; dose 0.08 uM): 0.208 log2 fold change; Dose.FC.LYZ.S ([2]; dose 0.40 uM): 0.086 log2 fold change; Dose.FC.LYZ.S ([2]; dose 2.00 uM): −0.065 log2 fold change; Dose.FC.LYZ.S ([2]; dose 10.00 uM): −0.267 log2 fold change; Dose.FC.CTG ([3]; dose 0.08 uM): 0.072 log2 fold change; Dose.FC.CTG ([3]; dose 0.40 uM): −0.002 log2 fold change; Dose.FC.CTG ([3]; dose 2.00 uM): −0.158 log2 fold change; Dose.FC.CTG ([3]; dose 10.00 uM): −0.433 log2 fold change
C[C@H](Cn1cnc2c(N)ncnc21)OCP(=O)(O)O [Tenofovir] |  |  |  |  |  |  |  |  |  |  |  |  |  |  |  |  | −0.076 | −0.662 | −0.132 | −1.153 | Dose.FC.LYZ.NS ([1]; dose 0.08 uM): 0.077 log2 fold change; Z.LYZ.NS (standard z score) ([1]; dose 0.08 uM): 0.673; Dose.FC.LYZ.NS ([1]; dose 10.00 uM): −0.218 log2 fold change; Z.LYZ.NS (standard z score) ([1]; dose 10.00 uM): −1.899; Dose.FC.LYZ.S ([2]; dose 0.08 uM): 0.045 log2 fold change; Dose.FC.LYZ.S ([2]; dose 0.40 uM): −0.080 log2 fold change; Dose.FC.LYZ.S ([2]; dose 2.00 uM): −0.171 log2 fold change; Dose.FC.LYZ.S ([2]; dose 10.00 uM): −0.271 log2 fold change; Dose.FC.CTG ([3]; dose 0.08 uM): 0.019 log2 fold change; Z.CTG (standard z score) ([3]; dose 0.08 uM): 0.045; Dose.FC.CTG ([3]; dose 0.40 uM): −0.084 log2 fold change; Z.CTG (standard z score) ([3]; dose 0.40 uM): −0.200; Dose.FC.CTG ([3]; dose 2.00 uM): −0.129 log2 fold change; Z.CTG (standard z score) ([3]; dose 2.00 uM): −0.308; Dose.FC.CTG ([3]; dose 10.00 uM): −0.337 log2 fold change; Z.CTG (standard z score) ([3]; dose 10.00 uM): −0.804
CN(C)CCCCC(=O)Nc1ccc(NC(=S)NC(=O)c2ccc(C(C)(C)C)cc2)cc1 [Tenovin-6] |  |  |  |  |  |  |  |  |  |  |  |  |  |  |  |  | −0.053 | −0.463 | −0.194 | −1.686 | Dose.FC.LYZ.NS ([1]; dose 0.08 uM): 0.121 log2 fold change; Z.LYZ.NS (standard z score) ([1]; dose 0.08 uM): 1.050; Dose.FC.LYZ.NS ([1]; dose 10.00 uM): −0.192 log2 fold change; Z.LYZ.NS (standard z score) ([1]; dose 10.00 uM): −1.671; Dose.FC.LYZ.S ([2]; dose 0.08 uM): 0.028 log2 fold change; Dose.FC.LYZ.S ([2]; dose 0.40 uM): −0.109 log2 fold change; Dose.FC.LYZ.S ([2]; dose 2.00 uM): −0.328 log2 fold change; Dose.FC.LYZ.S ([2]; dose 10.00 uM): −0.344 log2 fold change; Dose.FC.CTG ([3]; dose 0.08 uM): 0.069 log2 fold change; Z.CTG (standard z score) ([3]; dose 0.08 uM): 0.165; Dose.FC.CTG ([3]; dose 0.40 uM): −0.506 log2 fold change; Z.CTG (standard z score) ([3]; dose 0.40 uM): −1.209; Dose.FC.CTG ([3]; dose 2.00 uM): −1.111 log2 fold change; Z.CTG (standard z score) ([3]; dose 2.00 uM): −2.654; Dose.FC.CTG ([3]; dose 10.00 uM): −1.429 log2 fold change; Z.CTG (standard z score) ([3]; dose 10.00 uM): −3.414
